Counter-ions that a name gives are not always drawn.
System: modified version of the GPR119 receptor (94% identity to human receptor)
Test: cAMP production assay (LANCE cAMP kit, TR-FRET) in HEK-293 cells
Type: cell-based
Conditions: for cAMP production in HEK-293 cells: HEK-293 cells stably expressing modified GPR119, test compounds 0.2 nM to 10 μM, one-hour incubation; for Fold over baseline: increase in cAMP relative to basal levels, agonist activity if 1.5-fold or greater
Method: The assay utilized HEK-293 cells that stably express a modified version of the GPR119 receptor (94% identity to human receptor), under the control of a CMV promoter containing a tet-on element for tetracycline-inducible expression. GPR119 agonist-induced cyclic AMP (cAMP) production was measured in this cell line using the LANCE cAMP kit (Perkin Elmer, Waltham, Mass.). To generate a working stock of cells for the assay, cells were treated overnight with 1 μg/mL doxycycline at 37° C. in the presence of 5% CO2 to induce receptor expression. Cells were then harvested by enzymatic dissociation with 0.05% trypsin, resuspended in freezing medium (DMEM growth medium with 10% each of fetal bovine serum and DMSO), aliquoted and frozen at −80° C. On the day of the assay, frozen cells were thawed, washed 1× in PBS and resuspended in Hank's buffered salt solution (HBSS) containing 5 mM HEPES, 0.1% BSA and Alexa Fluor 647-conjugated anti-cAMP antibody (diluted 1:100). The cell suspension was then transferred to a Proxiplate Plus white 384-well assay plate (Perkin-Elmer) at 2000 cells/well. Test compounds at final concentrations ranging from 0.2 nM to 10 μM were added to the assay plate, followed by a one-hour incubation at ambient temperature (volume=10 μL/well). DMSO concentration was held constant at 0.5%. After incubation with test compounds, 10 μL, of a detergent buffer containing a biotinylated cAMP/Europium-conjugated streptavidin complex (Europium-labeled cAMP tracer) were added to each well on the assay plate, followed by a 2-hour incubation at ambient temperature. During this incubation cAMP released from lysed cells competes with the Europium-labeled cAMP tracer for binding to the Alexa Fluor 647-conjugated antibody. […] Cellular cAMP levels were then determined by interpolation of raw signal data using a cAMP standard curve. Compounds were determined to have agonist activity if they stimulated a 1.5-fold or greater increase in cAMP relative to basal levels.

Compound | cAMP production in HEK-293 cells | Fold over baseline
CC(C)c1nsc(N2CCC(N3CC[C@H](Nc4ccc(S(C)(=O)=O)cc4F)C3=O)CC2)n1 [Example 1, (S)-3-(2-fluoro-4-(methylsulfonyl)phenylamino)-1-(1-(3-isopropyl-1,2,4-thiadiazol-5-yl)piperidin-4-yl)pyrrolidin-2-one] | 21.6 nmol | 3.3
CC(C)c1nsc(N2CCC(N3CC[C@@H](Nc4ccc(S(C)(=O)=O)cc4F)C3=O)CC2)n1 [Example 2, (R)-3-(2-fluoro-4-(methylsulfonyl)phenylamino)-1-(1-(3-isopropyl-1,2,4-thiadiazol-5-yl)piperidin-4-yl)pyrrolidin-2-one] | 21.9 nmol | 3.1
CCS(=O)(=O)c1ccc(N[C@H]2CCN(C3CCN(c4nc(C(C)C)ns4)CC3)C2=O)c(F)c1 [Example 3, (S)-3-(4-(ethylsulfonyl)-2-fluorophenylamino)-1-(1-(3-isopropyl-1,2,4-thiadiazol-5-yl)piperidin-4-yl)pyrrolidin-2-one] | 25.3 nmol | 5.4
CC(C)c1nsc(N2CCC(N3CC[C@H](Nc4ccc(S(=O)(=O)C5CC5)cc4F)C3=O)CC2)n1 [Example 4, (S)-3-(4-(cyclopropylsulfonyl)-2-fluorophenylamino)-1-(1-(3-isopropyl-1,2,4-thiadiazol-5-yl)piperidin-4-yl)pyrrolidin-2-one] | 24.2 nmol | 4.3
CC(C)c1nsc(N2CCC(N3CC[C@H](Nc4cc(F)c(S(C)(=O)=O)cc4F)C3=O)CC2)n1 [Example 5, (S)-3-(2,5-difluoro-4-(methylsulfonyl)phenylamino)-1-(1-(3-isopropyl-1,2,4-thiadiazol-5-yl)piperidin-4-yl)pyrrolidin-2-one] | 19.2 nmol | 2.7
CC(C)c1nsc(N2CCC(N3CC[C@H](Nc4ccc(S(=O)(=O)CC5CC5)cc4F)C3=O)CC2)n1 [Example 6, (S)-3-(4-(cyclopropylmethylsulfonyl)-2-fluorophenylamino)-1-(1-(3-isopropyl-1,2,4-thiadiazol-5-yl)piperidin-4-yl)pyrrolidin-2-one] | 23.2 nmol | 3.2
CC(C)c1nsc(N2CCC(N3CC[C@@H](Nc4ccc(S(=O)(=O)C5CC5)cc4F)C3=O)CC2)n1 [Example 7, (R)-3-(4-(cyclopropylsulfonyl)-2-fluorophenylamino)-1-(1-(3-isopropyl-1,2,4-thiadiazol-5-yl)piperidin-4-yl)pyrrolidin-2-one] | 23.8 nmol | 3.4
CC(C)c1nsc(N2CCC(N3CC[C@H](Nc4ccc(S(=O)(=O)C(C)C)cc4F)C3=O)CC2)n1 [Example 8, (S)-3-(2-fluoro-4-(isopropylsulfonyl)phenylamino)-1-(1-(3-isopropyl-1,2,4-thiadiazol-5-yl)piperidin-4-yl)pyrrolidin-2-one] | 37.6 nmol | 4.7
CC(C)c1nsc(N2CCC(N3CC[C@H](Nc4cc(Cl)c(S(C)(=O)=O)cc4F)C3=O)CC2)n1 [Example 9, (S)-3-(5-chloro-2-fluoro-4-(methylsulfonyl)phenylamino)-1-(1-(3-isopropyl-1,2,4-thiadiazol-5-yl)piperidin-4-yl)pyrrolidin-2-one] | 16.0 nmol | 4.0
CC(C)c1nsc(N2CCC(N3CC[C@H](Nc4ccc(S(C)(=O)=O)cc4C#N)C3=O)CC2)n1 [Example 10, (S)-2-(1-(1-(3-isopropyl-1,2,4-thiadiazol-5-yl)piperidin-4-yl)-2-oxopyrrolidin-3-ylamino)-5-(methylsulfonyl)benzonitrile] | 11.3 nmol | 2.3
CC(C)c1nsc(N2CCC(N3CC[C@H](Nc4ccc(S(C)(=O)=O)c(Cl)c4)C3=O)CC2)n1 [Example 11, (S)-3-(3-chloro-4-(methylsulfonyl)phenylamino)-1-(1-(3-isopropyl-1,2,4-thiadiazol-5-yl)piperidin-4-yl)pyrrolidin-2-one] | 10.8 nmol | 3.0
CC(C)c1nsc(N2CCC(N3CC[C@H](Nc4ccc(S(C)(=O)=O)cc4Cl)C3=O)CC2)n1 [Example 12, (S)-3-(2-chloro-4-(methylsulfonyl)phenylamino)-1-(1-(3-isopropyl-1,2,4-thiadiazol-5-yl)piperidin-4-yl)pyrrolidin-2-one] | 17.5 nmol | 3.9
CC(C)c1nsc(N2CCC(N3CC[C@@H](Nc4ccc(S(=O)(=O)N(C)C)cc4F)C3=O)CC2)n1 [Example 13, (R)-3-fluoro-4-(1-(1-(3-isopropyl-1,2,4-thiadiazol-5-yl)piperidin-4-yl)-2-oxopyrrolidin-3-ylamino)-N,N-dimethylbenzenesulfonamide] | 25.2 nmol | 3.4
CC(C)c1nsc(N2CCC(N3CC[C@H](Nc4ncc(S(C)(=O)=O)cn4)C3=O)CC2)n1 [Example 14, (S)-1-(1-(3-isopropyl-1,2,4-thiadiazol-5-yl)piperidin-4-yl)-3-(5-(methylsulfonyl)pyrimidin-2-ylamino)pyrrolidin-2-one] | 17.5 nmol | 2.8
CC(C)c1nsc(N2CCC(N3CC[C@H](Nc4ccc(Br)cn4)C3=O)CC2)n1 [Example 15, (S)-3-(5-Bromopyridin-2-ylamino)-1-(1-(3-isopropyl-1,2,4-thiadiazol-5-yl)piperidin-4-yl)pyrrolidin-2-one] | 11.4 nmol | 2.7
CC(C)c1nsc(N2CCC(N3CC[C@H](Nc4ccc(S(C)(=O)=O)cn4)C3=O)CC2)n1 [Example 16, (S)-1-(1-(3-isopropyl-1,2,4-thiadiazol-5-yl)piperidin-4-yl)-3-(5-(methylsulfonyl)pyridin-2-ylamino)pyrrolidin-2-one] | 27.2 nmol | 3.7
Cc1cc(S(C)(=O)=O)cnc1N[C@H]1CCN(C2CCN(c3nc(C(C)C)ns3)CC2)C1=O [Example 17, (S)-1-(1-(3-isopropyl-1,2,4-thiadiazol-5-yl)piperidin-4-yl)-3-(3-methyl-5-(methylsulfonyl)pyridin-2-ylamino)pyrrolidin-2-one] | 11.2 nmol | 2.1
Cc1cc(N[C@H]2CCN(C3CCN(c4nc(C(C)C)ns4)CC3)C2=O)c(F)cc1S(C)(=O)=O [Example 18, (S)-3-(2-fluoro-5-methyl-4-(methylsulfonyl)phenylamino)-1-(1-(3-isopropyl-1,2,4-thiadiazol-5-yl)piperidin-4-yl)pyrrolidin-2-one] | 20.1 nmol | 3.4
CCS(=O)(=O)c1ccc(NC2CCN(C3CCN(c4nc(C(C)C)ns4)CC3)C2=O)cc1C (stereo not shown) [Example 19, 3-(4-(Ethylsulfonyl)-3-methylphenylamino)-1-(1-(3-isopropyl-1,2,4-thiadiazol-5-yl)piperidin-4-yl)pyrrolidin-2-one] | 16.4 nmol | 2.4
CCS(=O)(=O)c1ccc(NC2CCN(C3CCN(c4nc(C(C)C)ns4)CC3)C2=O)cc1F (stereo not shown) [Example 20, 3-(4-(ethylsulfonyl)-3-fluorophenylamino)-1-(1-(3-isopropyl-1,2,4-thiadiazol-5-yl)piperidin-4-yl)pyrrolidin-2-one] | 22.6 nmol | 3.5
Cc1cc(S(C)(=O)=O)ccc1NC1CCN(C2CCN(c3nc(C(C)C)ns3)CC2)C1=O (stereo not shown) [Example 21, 1-(1-(3-isopropyl-1,2,4-thiadiazol-5-yl)piperidin-4-yl)-3-(2-methyl-4-(methyl-sulfonyl)phenylamino) pyrrolidin-2-one] | 13.0 nmol | 3.3
CC(C)Cc1nsc(N2CCC(N3CC[C@H](Nc4ccc(S(C)(=O)=O)cc4F)C3=O)CC2)n1 [Example 22, (S)-3-(2-fluoro-4-(methylsulfonyl)phenylamino)-1-(1-(3-isobutyl-1,2,4-thiadiazol-5-yl)piperidin-4-yl)pyrrolidin-2-one trifluoroacetate] | 22.1 nmol | 7.6
CS(=O)(=O)c1ccc(N[C@H]2CCN(C3CCN(c4nc(C5CC5)ns4)CC3)C2=O)c(F)c1 [Example 23, (S)-1-(1-(3-cyclopropyl-1,2,4-thiadiazol-5-yl)piperidin-4-yl)-3-(2-fluoro-4-(methyl-sulfonyl)phenylamino) pyrrolidin-2-one] | 11.9 nmol | 2.9

Source: patent US20140256756A1, “PIPERIDINYL-SUBSTITUTED LACTAMS AS GPR119 MODULATORS” (Array BioPharma Inc., priority 2011, published 2014)
